Data taken from ChEMBL document CHEMBL4052778, “Bioactive polyprenylated benzophenone derivatives from the fruits extracts of Garcinia xanthochymus” (Bioorg Med Chem Lett, 2017).
Calls of active or inactive are those of the source. The rule behind the calls is not given here.

Assays:
MDA-MB-231 = assay: Cytotoxicity against human MDA-MB-231 cells assessed as reduction in cell viability after 72 hrs by CyQuant dye-based assay; format: functional
U-251 [1] = assay: Cytotoxicity against human U251MG cells assessed as reduction in cell viability after 72 hrs by CyQuant dye-based assay; format: functional
NIH3T3 = assay: Cytotoxicity against mouse NIH/3T3 cells assessed as reduction in cell viability after 72 hrs by CyQuant dye-based assay
U-251 [2] = assay: Antimigratory activity in human U251MG cells at 2.5 to 5.0 uM after 18 hrs by inverted fluorescence microscopic method-based wound-healing assay; format: functional, cell-based
[3] = molecular target: Signal transducer and activator of transcription 3 (Homo sapiens) (UniProt P40763); assay: Inhibition of STAT3 DNA binding activity in human U251MG nuclear extract at 5 uM preincubated for 30 mins followed by addition of [32P]hSIE measured up to 24 hrs by electrophoretic mobility shift assay
Sequence of Signal transducer and activator of transcription 3 (Homo sapiens) (P40763 whole entry): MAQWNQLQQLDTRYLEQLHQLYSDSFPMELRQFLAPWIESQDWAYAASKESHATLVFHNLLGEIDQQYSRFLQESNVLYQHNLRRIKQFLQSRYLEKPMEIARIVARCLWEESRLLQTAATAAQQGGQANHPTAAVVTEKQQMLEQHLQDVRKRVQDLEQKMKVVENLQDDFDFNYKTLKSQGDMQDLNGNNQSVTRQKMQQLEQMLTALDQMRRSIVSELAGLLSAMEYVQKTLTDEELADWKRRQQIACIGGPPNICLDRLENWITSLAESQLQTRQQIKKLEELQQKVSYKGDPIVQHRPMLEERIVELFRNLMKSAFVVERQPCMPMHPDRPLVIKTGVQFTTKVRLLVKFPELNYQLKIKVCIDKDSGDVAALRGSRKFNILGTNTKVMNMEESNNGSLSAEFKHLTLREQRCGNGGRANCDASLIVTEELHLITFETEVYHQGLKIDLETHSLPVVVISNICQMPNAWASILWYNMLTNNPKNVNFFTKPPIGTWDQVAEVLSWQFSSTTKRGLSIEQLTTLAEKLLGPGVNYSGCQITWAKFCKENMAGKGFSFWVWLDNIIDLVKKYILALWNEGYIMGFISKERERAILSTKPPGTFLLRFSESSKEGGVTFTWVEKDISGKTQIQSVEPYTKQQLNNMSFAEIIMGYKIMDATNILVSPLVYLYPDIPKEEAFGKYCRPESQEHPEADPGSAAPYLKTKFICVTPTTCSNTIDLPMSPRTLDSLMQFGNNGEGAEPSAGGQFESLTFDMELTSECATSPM

[4] = molecular target: Signal transducer and activator of transcription 3 (Homo sapiens) (UniProt P40763); assay: Inhibition of STAT3 activity in human U251MG cells assessed as downregulation of STAT3 phosphorylation at Tyr705 residue at 5 uM up to 24 hrs by Western blot analysis; format: cell-based
[5] = Homo sapiens, U-251, 72 h, read-out: IC50

Row | Structure (SMILES) | IC50 (MDA-MB-231) | IC50 (U-251 [1]; [5]) | IC50 (NIH3T3) | Activity (U-251 [2]) | inhibition [3] | IC50 (U-251 [1]; u-251) | inhibition [4]
1 | CC(C)=CC[C@@H]1C[C@]23C[C@H](CC=C(C)C)C(C)(C)[C@](CC=C(C)C)(C(=O)C(C(=O)c4ccc(O)c(O)c4)=C2OC1(C)C)C3=O [ISOXANTHOCHYMOL] | Not Active | 6 µM | Non-Toxic | – | – | – | –
2 | CC(C)=CC[C@H]1C[C@@]23C[C@@H](CC=C(C)C)C(C)(C)[C@@](CC=C(C)C)(C(=O)C(C(=O)c4ccc(O)c(O)c4)=C2OC1(C)C)C3=O [CAMBOGIN] | Not Active | 2.8 µM | Non-Toxic | – | – | – | –
3 | C=C(C)CC[C@H]1C[C@]23C[C@H](CC=C(C)C)C(C)(C)[C@](CC=C(C)C)(C2=O)c2oc4cc(O)c(O)cc4c(=O)c2[C@]3(O)CC1=C | Not Active | 3.5 µM | Non-Toxic | – | – | – | –
4 | C=C(C)[C@H]1C[C@@]23C[C@@H](CC=C(C)C)C(C)(C)[C@@](CC=C(C)C)(C(=O)C(C(=O)c4ccc(O)c(O)c4)=C2O[C@@H]1C=C(C)C)C3=O | Not Active | 3.7 µM | Non-Toxic | Active | Active | – | –
5 | C=C(C)CCC(CC12CC3C(C=C(C)C)C(C(=O)c4ccc(O)c(O)c4)(CC(CC=C(C)C)(C1=O)C3(C)C)C2=O)C(=C)C (centres undefined) | Not Active | – | Non-Toxic | – | – | Not Active | –
6 | C=C(C)CC[C@H](C[C@]12C[C@H](CC=C(C)C)C(C)(C)[C@](CC=C(C)C)(C(=O)C(C(=O)c3ccc(O)c(O)c3)=C1O)C2=O)C(=C)C | – | – | – | – | – | – | Active
7 | C=C(C)C(CC=C(C)C)C[C@@]12C[C@@H](CC=C(C)C)C(C)(C)[C@@](CC=C(C)C)(C(=O)C(C(=O)c3cccc(O)c3)=C1O)C2=O (some centres undefined) | Not Active | 1.3 µM | Non-Toxic | – | – | – | –
8 | CC(C)=CC[C@H]1C[C@]23C[C@@H]4CC=C(C)C[C@]4(C)C[C@@]2(O)c2c(oc4cc(O)c(O)cc4c2=O)[C@@](CC=C(C)C)(C3=O)C1(C)C | Not Active | 1.8 µM | Non-Toxic | – | – | – | –
